US10231980B2, “Cortexolone 17alpha-benzoate for use in the treatment of tumours” (COSMO TECHNOLOGIES LTD., priority 2014, dated 2019)
Read-outs that look alike come from different tables or passages of the source.

Columns and labels:
[1] = tested on: HT29; experiment: MTT colorimetric assay on epithelial intestinal cancer cells; format: cell-based; details: for Therapeutic Index (TI), Resting PBMC: IC50 resting PBMC / IC50 HT29; for Therapeutic Index (TI), Stimulated PBMC: IC50 stimulated PBMC / IC50 HT29
Procedure: The experiment was performed to test and define anticancer activity in vitro of Cortexolone 17α-benzoate and cortexolone 17α-valerate, 21-propionate on cell lines representatives of epithelial intestinal tumours, namely HT29. The experiment method consisted in: • 1. Monolayer HT-29 cells were plated in: 96-wells plates at the density of 2×10^4 cells/mL. The cells plated were kept at 37° C. in 5% CO2 and left to attach for 24 h. • 2. […] After 72 h of treatment, the MTT colorimetric assay was performed.

[2] = tested on: MiaPaca2 (AR low); experiment: ATP-dependent proliferation assay with 10 nM DHT, pancreatic cancer cells (Examples 3, 4, 7); details: for TI on Resting PBMC: IC50 resting PBMC / IC50 MiaPaca2; for TI on Stimulated PBMC: IC50 stimulated PBMC / IC50 MiaPaca2; for IC50: MiaPaca2
Procedure: (§1) The experimental method consisted of: • 1. […] After 24 hrs, 10 nM DHT (dihydrotestosterone) with or without anti-androgen compounds, or DMSO vehicle (negative control) was added to the cultures. • 3.
(§2) Data from Experiment 1 were fitted through sigmoidal dose response curves and analyzed using Prizm statistical analysis software. […] The results from 2 sets of experiments follow.
(§3) Data from Experiment 1 was fitted through sigmoidal dose response curves and analyzed using Prizm statistical analysis software.

[3] = tested on: Panc1 (AR+); experiment: as above; details: for TI on Resting PBMC: IC50 resting PBMC / IC50 Panc1; for TI on Stimulated PBMC: IC50 stimulated PBMC / IC50 Panc1; for IC50: Panc1
Procedure: as §1, §2, §3

[4] = tested on: BxPC3; experiment: In vitro proliferation, larger panel (Example 14); details: BxPC3
Text: (§4) Data shown in Table I were fitted through sigmoidal dose response curves and analyzed using Prizm statistical.

[5] = tested on: PC3 (AR−); experiment: ATP-dependent proliferation assay with 10 nM DHT, prostate cancer cells (Examples 1, 2); format: cell-based, human; details: PC3, read-out: IC50
Procedure: (§5) The experiment was performed to test and to define the antitumor activity in vitro of cortexolone 17α-benzoate on LNCaP (AR^+) and PC3 (AR^−), representative of Prostatic cancer cell lines with Androgen receptor positive or negative expression, respectively. The experimental method consisted of: • 1. […] After 24 hrs, 10 nM DHT (dihydrotestosterone) with or without anti-androgen compounds, or DMSO vehicle (negative control) was added to the cultures. • 3.
(§6) Data from Experiment 1 was fitted through sigmoidal dose response curves and analyzed using Prizm statistical analysis software. […] The results from 2 sets of experiments follow.
as §5, with “define” for “define the”, “17α-valerate-21-propionate” for “17α-benzoate”, “hours,” for “hrs,”

[6] = tested on: LNCaP (AR+); experiment: as above; format: cell-based, human; details: LNCaP, read-out: IC50
Procedure: as §5, §6
as §5, with “define” for “define the”, “17α-valerate-21-propionate” for “17α-benzoate”, “hours,” for “hrs,”

[7] = tested on: MCF7; experiment: In vitro proliferation / cytotoxic assay on breast cancer cells (Examples 14, 25); details: MCF7
Procedure: as §4
For the cytotoxic assay, cells were seeded in 96-well flat bottom culture plates in media containing charcoal stripped serum. After 24 hours, test compounds were added to the cells. DMSO was used as the vehicle negative control and RU486 as the positive control. After 72 hour incubation, cells were harvested and lysed to determine cell viability using the Cell Titer Glow assay.

[8] = tested on: LNCaP; experiment: ATP-dependent cell viability assay (Cell Titer Glo), Example 12; details: LNCaP
Text: as §4

[9] = tested on: PC3; experiment: as above; details: PC3
Text: as §4

[10] = tested on: MiaPaca2; experiment: as above; details: MiaPaca2
Text: as §4

[11] = tested on: Panc1; experiment: as above; details: Panc1
Text: as §4

[12] = tested on: stimulated PBMC; experiment: IC50 on stimulated (actively dividing) PBMC; format: cell-based, human; details: PBMC Stim; Table IV
[13] = Experiment 1, 0 = higher toxicity in PBMC
[14] = Experiment 1, sigmoidal dose response fit, 10 nM DHT, 3 days
[15] = Experiment 2, nonlinear regression least squares fit, additional experiments
[16] = read-out: In vitro proliferation IC50, Table IV
[17] = Tables I and II, titrated 3 uM to 200 uM, 3 days

SMILES: CCCCC(=O)O[C@]1(C(=O)COC(=O)CC)CC[C@H]2[C@@H]3CCC4=CC(=O)CC[C@]4(C)[C@H]3CC[C@@]21C [CB-03-10, cortexolone 17α-valerate-21-propionate]
- Inhibition (%) on HT29 ([1]; 0.8 micromolar, 72 h): 0.44%
- Inhibition (%) on HT29 ([1]; 4 micromolar, 72 h): 14.23%
- Inhibition (%) on HT29 ([1]; 20 micromolar, 72 h): 25.49%
- Inhibition (%) on HT29 ([1]; 100 micromolar, 72 h): 89.77%
- Inhibition (%) on HT29 ([1]; 500 micromolar, 72 h): 92.10%
- IC50 ([1]; HT29, MTT, 72 h, read-out: IC50 Calculated): 34.2 µM
- Therapeutic Index = IC50 resting PBMC/IC50 cancer cell ([1]; HT29, Table IV): 3
- IC50 ([1]; HT29, Table IV, read-out: In vitro proliferation IC50): 34 µM
- Therapeutic Index = IC50 stimulated PBMC/IC50 cancer cell ([1]; HT29, Table VII): 3
- Therapeutic Index (TI), Resting PBMC ([1]; Experiment 1): 3
- Therapeutic Index (TI), Resting PBMC ([1]; Experiment 2): 4
- Therapeutic Index (TI), Stimulated PBMC ([1]; Experiment 1): 3
- Therapeutic Index (TI), Stimulated PBMC ([1]; Experiment 2): 3
- TI on Resting PBMC [2, 13]: 3
- TI on Resting PBMC ([2]; Experiment 2): 3
- TI on Stimulated PBMC [2, 13]: 3
- TI on Stimulated PBMC ([2]; Experiment 2): 3
- IC50 ([2]; Example 7, Experiment 1): 34 µM
- IC50 ([2]; Example 7, Experiment 2): 37 µM
- IC50 [2, 14]: 43 µM
- IC50 [2, 15]: 37 µM
- TI on Resting PBMC [3, 13]: 2
- TI on Resting PBMC ([3]; Experiment 2): 2
- TI on Stimulated PBMC [3, 13]: 2
- TI on Stimulated PBMC ([3]; Experiment 2): 2
- IC50 ([3]; Example 7, Experiment 1): 68 µM
- IC50 ([3]; Example 7, Experiment 2): 60 µM
- IC50 [3, 14]: 66 µM
- IC50 [3, 15]: 60 µM
- Therapeutic Index = IC50 resting PBMC/IC50 cancer cell ([4]; Table IV): 3
- Therapeutic Index = IC50 stimulated PBMC/IC50 cancer cell ([4]; Table VII): 3
- IC50 [4, 16]: 30 µM
- IC50 [5, 14]: 55 µM
- IC50 [5, 15]: 50 µM
- IC50 [6, 14]: 13 µM
- IC50 [6, 15]: 10 µM
- Therapeutic Index = IC50 resting PBMC/IC50 cancer cell ([7]; Table IV): 3
- Therapeutic Index = IC50 stimulated PBMC/IC50 cancer cell ([7]; Table VII): 3
- IC50 [7, 16]: 28 µM
- Therapeutic Index = IC50 resting PBMC/IC50 cancer cell ([8]; Table IV): 9
- Therapeutic Index = IC50 stimulated PBMC/IC50 cancer cell ([8]; Table VII): 9
- IC50 [8, 17]: 10 µM
- IC50 [8, 16]: 10 µM
- Therapeutic Index = IC50 resting PBMC/IC50 cancer cell ([9]; Table IV): 2
- Therapeutic Index = IC50 stimulated PBMC/IC50 cancer cell ([9]; Table VII): 2
- IC50 [9, 17]: 53 µM
- IC50 [9, 16]: 53 µM
- Therapeutic Index = IC50 resting PBMC/IC50 cancer cell ([10]; Table IV): 3
- Therapeutic Index = IC50 stimulated PBMC/IC50 cancer cell ([10]; Table VII): 3
- IC50 [10, 17]: 37 µM
- IC50 [10, 16]: 37 µM
- Therapeutic Index = IC50 resting PBMC/IC50 cancer cell ([11]; Table IV): 2
- Therapeutic Index = IC50 stimulated PBMC/IC50 cancer cell ([11]; Table VII): 2
- IC50 [11, 17]: 60 µM
- IC50 [11, 16]: 60 µM
- Therapeutic Index = IC50 resting PBMC/IC50 cancer cell [12]: 1
